Data on two molecules can be found in US20060003030A1, “Essential oils for treating and/ or preventing allergic disease” (priority 2004, published 2006).

≈ marks a conversion by molar mass, not a printed value.

The test system of assay [1] is mouse macrophage cell line RAW 264.7. The assay can be described thus: Inhibitory effect of essential oils on NO production by LPS-activated mouse macrophage cell line (Griess reagent). Format: cell-based. To be noted: positive control, concentration not given; LPS (Inducer) 60 ± 0.5, Blank 3.5 ± 0.3. As to the method:
The mouse macrophage cell line RAW 264.7 was purchased from Bioresources Collection & Research Center, Taiwan and numbered CCRC 60001. The cells were added to Dulbecco's Modified Eagle Medium (DMEM, GibcoBRL) containing 10% (v/v) fetal bovine serum (FBS, GibcoBRL) and then incubated in a CO2 incubator containing 5% CO2 at 37° C. The cells grow to 90% density and are then washed with phosphate buffered saline (PBS). The cells were colleted and diluted with fresh DMEM to the appropriate concentration.
The mouse macrophage cells were transferred in a 96-well plate in a concentration of 10,000 cells/well. After incubating for 24 hours, the cells were activated with the medium containing 100 μg/ml Lipopolysaccharide (LPS, SIGMA) and 100·μg/ml Interferon-γ (INF-γ, GibcoBRL). Meanwhile, the essential oils of herbal medicine in different concentrations were added to the wells. After incubating for 24 hours, 50 μl of supernatants were respectively taken and put into a 96-well plate. […] Then, the absorbance of the resulting cell supernatants was determined with a microplate reader at a wavelength of […]. The percentage of nitric oxide can be calculated by the following formula: % nitric oxide=(sample absorptivity/control absorptivity)×100%.

The subject of assay [2] is PAF-induced platelet aggregation. The assay can be described thus: Inhibitory activity of essential oils on PAF-induced platelet aggregation. The note with it: rabbit washed platelet suspension, PAF added 2 min after sample, aggregation observed 4 min. Format: cell-based, New Zealand rabbit. As to the method: The anticoagulant “acid-citrate-dextrose” (ACD) was added to the blood taken from a New Zealand rabbit in a ratio of 1:6 by volume. The resulting blood was centrifuged at 190 g for 15 min at room temperature. After centrifugation, the supernatant containing platelet-rich plasma (PRP) was taken and 0.2 M EDTA was added. The resulting supernatant was centrifuged at 1000 g for 1.5 min. After centrifugation, the pellet containing RBC and WBC was removed and then PRP was centrifuged at 1000 g for 11 min. After centrifugation, the supernatant was removed and the platelet pellet was suspended in Ca^2+--free Tyrode's buffer (containing 1 mM Ca2+). […] The turbidity was determined with a Platelet Aggregation Chromogenic Kinetic System.
0.5 ml of platelet suspension was added to silicon-coated cuvette and put in a Platelet Aggregation Chromogenic Kinetic System and bathed for 2 min at 37° C. […] The ratio of aggregation was calculated by the following formula: Ratio of aggregation %=(absorptivity before adding PAF−absorptivity after adding PAF/(absorptivity before adding PAF−absorptivity of Tyrode's buffer)×100% The ratio of inhibition was calculated by the following formula: Ratio of inhibition %=100%−(ratio of aggregation of sample/ratio of aggregation of control×100%)

In the case of `CNC(=N)NCCC[C@H](N)C(=O)O` [L-NMMA], the Nitric oxide in assay [1] turned out to be 25 ± 0.6 µM.
As for `CCCCCCCCCCCCCCCCCCNC(=O)OCC(COP(=O)([O-])OCC[n+]1ccsc1)OC` (centres unmarked) [CV-3988], the IC50 in assay [2] was 1420 µg/mL (≈ 2400 µM).

A word on the IC50: it is the concentration at which inhibition is half-maximal. Low values mean higher potency, high ones lower potency.
